The values that follow come from patent US12116364B2, “Heteroaryl compounds and uses thereof” (APRINOIA THERAPEUTICS INC., priority 2018, dated 2024).

Some results are limits rather than exact numbers.

Assay [1] has as its target [11C]PBB3 binding sites (tau aggregates) in temporal cortex homogenates of an Alzheimer's disease patient (Homo sapiens, UniProt P10636). Description: Fluorescence competitive binding assay in vitro ([11C]PBB3 displacement in Alzheimer's disease temporal cortex homogenates). The settings on record: 5 nM [11C]PBB3, AD temporal cortex homogenate (100 μg tissue), 30 min, room temperature. As to the method: Fluorescence competitive binding assay in vitro was performed as reported previously1. Frozen tissues derived from the temporal cortex of an Alzheimer's disease patient was homogenized in 50 mM Tris-HCl buffer, pH 7.4, containing protease inhibitor cocktail (cOmplete™, EDTA-free; Roche), and stored at −80° C. pending analyses. To assay radioligand binding with homologous or heterologous blockade, these homogenates (100 μg tissue) were incubated with 5 nM [11C]PBB3 (molar radioactivity: 100-150 GBq/μmol) in the absence or presence of unlabeled PBB3 at varying concentrations ranging from 10-11-106 M in Tris-HCl buffer containing 10% ethanol, pH 7.4, for 30 min at room temperature. Non-specific binding of [11C]PBB3 was determined in the presence of 5×10^−7 M PBB3. Samples were run once only and specific radioligand binding was determined as pmol/g tissue. Inhibition constant (Ki) and percentage of displacement were determined by using non-linear regression to fit a concentration-binding plot to one-site and two-site binding models derived from the Cheng-Prusoff equation with GraphPad Prism version 6.0 (GraphPad Software), followed by F-test for model selection. In a one-site homologous blockade model, dissociation constant (Kd) was calculated from homologous competitive binding using this function: Kd=Ki=IC50−Radioligand
where IC50 and [Radioligand] stand for the concentration of the competitor inducing 50% inhibition and radioligand concentration, respectively. Experiments with [^11C]PBB3 and unlabeled PBB3 were performed in a dimly lit condition to avoid photoconversion of the compounds. Table B lists Ki values of exemplary test compounds.

Assay [2] addresses recombinant tau proteins (human Tau, heparin-fiberized) (Homo sapiens, UniProt P10636). Description: Fluorescence quantitative Tau binding assay in vitro. The settings on record: 0.04 uM fiberized recombinant tau, 30 mM Tris pH 7.5, 1 h, fluorometric saturation curve. Here is the method:
Expression and Purification of Human Tau Protein
• pET41a-Tau wild type • One Shot® BL21(DE3) Chemically Competent E. coli (Invitrogen, C600003) • Kanamycin sulfate (Sangon Biotech, A506636) • IPTG (Sangon Biotech, A100487) • Pipes buffer (100 mM Pipes, pH6.8, 1 mM EGTA, 1 mM MgSO4) • Hepes buffer (25 mM Hepes, pH7.2, 0.1 mM EDTA, 0.5 mM DTT, 100 mM NaCl) • Q-Sepharose Fast Flow column (GE Healthcare, 17-0510-01) • SP-Sepharose Fast Flow column (GE Healthcare, 17-0729-01) Procedures: Protein Expression: • Step 1: Transform 1 uL expression plasmid pET41a-tau wt into one One Shot® BL21(DE3) Chemically Competent E. coli, on ice 30 min. • Step 2: 42° C. heat shock 90 second and on ice 2 min, 37° C. recovery for 30 min, Plate small amount on LB(Kan+) agar plate incubate overnight at 37° C. • Step 3: Pick and resuspend a single colony in 200 mL liquid culture with 50 ug/mL Kanamycin to produce a starter culture. Inoculate starter culture and shake 200 rpm overnight at 37° C. • Step 4: Add 100× dilution Starter into fresh culture medium (Kan+) shake 200 rpm at 37° C. until OD600=0.8. • Step 5: Add IPTG (final conc. 1 mM) and express protein for 3 hr. • Step 6: Collect cell pellet and store at −80° C. for purification. Protein Purification: • Step 1: Cell pellet was resuspended in Pipes buffer. • Step 2: Sonication and centrifugation (15,000 rpm, 15 min at 4° C. • Step 3: The supernatant was placed in a boiling water bath for 20 min and subsequently centrifuged. The heat-stable proteins in the supernatant were loaded onto a Q-Sepharose Fast Flow column (20 mL) • Step 4: The flow through containing tau was loaded onto SP-Sepharose Fast Flow column (10 mL), eluted with Pipes buffer containing 0.2M NaCl. • Step 6: Fractions containing tau were pooled, concentrated and dialyzed against Hepes buffer, stored at −80° C. • Step 7: Reload SP-Flow through into Q-Sepharose Fast Flow column (20 mL) and SP-Sepharose Fast Flow column (10 mL) again, eluted with Pipes buffer containing 0.2M NaCl. • Step 8: Fractions containing tau were pooled, concentrated and dialyzed against Hepes buffer, stored at −80° C. Repeat step 6-7 twice, Collect all above all elution product and concentrated. Biological Assays Fluorescence Quantitative Tau Binding Assay In Vitro
2 uM of recombinant tau proteins and 15 uM of heparin were fiberized in 30 mM Tris (pH 7.5) buffer by overnight incubation at 37° C. 0.04 uM of recombinant tau proteins which was diluted in 30 mM Tris buffer (pH 7.5) was then reacted with test compounds (containing 1% DMSO) for 1 h. Regarding the fluorometric data, the binding saturation curve was created and the parameter estimation method was conducted using Prism software (GraphPad). Kd values were determined for each of test compounds. Table A lists Kd values of exemplary test compounds.

Assay [3] concerns tau aggregates (tangles/threads) in temporal cortex sections of an AD brain. As to the kind of experiment: Histological examination by fluorescence staining of AD brain sections. In kind it is binding, human. The settings on record: 0.001% (W/V) compound in 50% ethanol, 30 min, relative to PBB3; for Fluorescent binding Tangle: score for tangles; for Fluorescent binding Thread: score for threads. As to the method: The fluorescence binding assessment was performed as reported previously^1. For fluorescence labeling with PBB3 and test compounds, deparaffinized temporal cortex sections of an AD brain were incubated in 50% ethanol containing 0.001% (W/V) of PBB3 or test compound at room temperature for 30 min. The samples were rinsed with 50% ethanol for 5 min, dipped into distilled water twice for 3 min, and mounted in non-fluorescent mounting media ([…]; Vector Laboratories). Fluorescence images were captured using a DM4000 microscope (Leica) equipped with a custom filter cube for PBB3 (excitation band-pass at 391-437 nm and suppression low-pass with 458 nm cutoff).

[11C]PBB3 binding sites (tau aggregates) in temporal cortex homogenates of an Alzheimer's disease patient, sequence (P10636 623-695 limits assumed): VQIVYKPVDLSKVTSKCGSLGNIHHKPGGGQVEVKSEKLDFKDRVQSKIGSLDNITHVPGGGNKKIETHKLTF
recombinant tau proteins (human Tau, heparin-fiberized), sequence (P10636 whole entry): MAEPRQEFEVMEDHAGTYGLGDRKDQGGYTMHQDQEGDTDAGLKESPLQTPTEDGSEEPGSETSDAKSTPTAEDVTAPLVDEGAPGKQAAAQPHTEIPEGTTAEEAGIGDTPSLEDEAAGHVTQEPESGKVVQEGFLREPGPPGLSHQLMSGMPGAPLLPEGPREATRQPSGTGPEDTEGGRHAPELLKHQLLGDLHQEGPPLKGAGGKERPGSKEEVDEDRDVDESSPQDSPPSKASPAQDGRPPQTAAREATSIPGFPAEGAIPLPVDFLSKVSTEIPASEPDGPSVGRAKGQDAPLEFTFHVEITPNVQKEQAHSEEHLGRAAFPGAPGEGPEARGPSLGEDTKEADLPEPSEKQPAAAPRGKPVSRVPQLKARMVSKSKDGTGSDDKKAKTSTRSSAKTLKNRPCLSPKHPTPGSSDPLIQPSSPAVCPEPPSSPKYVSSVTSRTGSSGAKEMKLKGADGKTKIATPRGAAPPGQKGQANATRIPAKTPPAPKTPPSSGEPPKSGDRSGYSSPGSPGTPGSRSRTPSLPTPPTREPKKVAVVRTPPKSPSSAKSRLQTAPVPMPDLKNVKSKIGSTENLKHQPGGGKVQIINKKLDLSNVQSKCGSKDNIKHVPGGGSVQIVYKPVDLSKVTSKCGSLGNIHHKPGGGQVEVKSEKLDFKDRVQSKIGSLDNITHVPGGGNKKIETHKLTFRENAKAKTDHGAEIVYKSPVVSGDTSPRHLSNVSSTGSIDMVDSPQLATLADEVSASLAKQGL

Consider `Nc1cccc(-c2ccc(-c3cc4ccncc4[nH]3)cc2)c1` [Compound A, 3-[4-(1H-Pyrrolo[2,3-c]pyridin-2-yl)phenyl]aniline], for which the inhibition constant Ki (as a rule, a dissociation constant, usually derived from enzyme kinetics or from competition with a known ligand) in assay [1] was found to be 45 nM. Moreover, the Kd (as a rule, the equilibrium constant for the complex coming apart) in assay [2] came out at 500 nM. Moreover, in assay [3], the “Fluorescent binding Tangle” value was 2/2 and the “Fluorescent binding Thread” value was 2/2.
For `CNc1ccc(-c2ccc(-c3cc4cc(F)ncc4[nH]3)cc2)cn1` [Compound B, 5-(4-(5-Fluoro-1H-pyrrolo[2,3-c]pyridin-2-yl)phenyl)-N-methylpyridin-2-amine], in assay [1], the affinity, expressed as Ki, was 2 nM. In assay [2], the Kd was found to be 990 nM. For the same compound, in assay [3], the “Fluorescent binding Tangle” value was 3/3 and the “Fluorescent binding Thread” value is reported as 3/3.
The compound `CNc1ccc(-c2ccc(-c3cc4ccnc(O)c4[nH]3)cc2)cn1` [Compound C, 2-(4-(6-(Methylamino)pyridin-3-yl)phenyl)-1H-pyrrolo[2,3-c]pyridin-7-ol] registered a Ki in assay [1] of 25 nM. Besides, the Kd in assay [2] turned out to be 250 nM. In assay [3], the “Fluorescent binding Tangle” value amounted to 2 and the “Fluorescent binding Thread” value was 1.5.
For `CNc1ccc(-c2ccc(-c3cc4ccncc4[nH]3)cc2)c(F)n1` [Compound D, 5-(4-(1H-Pyrrolo[2,3-c]pyridin-2-yl)phenyl)-6-fluoro-N-methylpyridin-2-amine], in that order: 1 nM, 690 nM, 3/3 and 3/3.
For `CNc1ccc(-c2ccc(-c3cc4ccncc4[nH]3)c(F)n2)cn1` [Compound E, 6-Fluoro-N-methyl-5-(1H-pyrrolo[2,3-c]pyridin-2-yl)-2,3′-bipyridin-6′-amine], in that order: 5 nM, 2700 nM, 3/3 and 3/3.
`COc1ccc(-c2ccc(-c3cc4ccn(CCO)cc-4n3)cc2)cc1` [Compound F, 2-(2-(4′-Methoxybiphenyl-4-yl)-6H-pyrrolo[2,3-c]pyridine-6-yl)ethanol]: in assay [2], the Kd turned out to be 340 nM.
The compound `CN(C)c1ccc(-c2ccc(-c3cc4ccn(CC(O)CF)cc-4n3)cc2)cn1` (stereo not shown) [Compound G, 1-(2-(4-(6-(Dimethylamino)pyridin-3-yl)phenyl)-6H-pyrrolo[2,3-c]pyridin-6-yl)-3-fluoropropan-2-ol] gave an inhibitory constant (Ki) in assay [1] of 10 nM. Moreover, in assay [2], the dissociation constant Kd worked out at 280 nM. Further, in assay [3], the “Fluorescent binding Tangle” value stood at 2 and the “Fluorescent binding Thread” value was determined as 0.5.
Turning to `Nc1ccc(-c2ccc(-c3nc4ccncc4o3)cc2)cn1` [Compound H, 5-(4-(Oxazolo[5,4-c]pyridin-2-yl)phenyl)pyridin-2-amine], in assay [2], the Kd stood at 90 nM.
With `Nc1ccc2nc(-c3ccc(-c4ccc(NCCF)nc4)cc3)sc2c1` [Compound I, 2-(4-(6-((2-Fluoroethyl)amino)pyridin-3-yl)phenyl)benzo[d]thiazol-6-amine], in assay [1], the inhibition constant Ki came out at 5 nM. Besides, in assay [2], the Kd was determined as 800 nM. For the same compound, in assay [3], the “Fluorescent binding Tangle” value came out at 2 and the “Fluorescent binding Thread” value is given as 1.5.
Turning to `CN(C)c1ccc(-c2ccc(-c3nc4ccncc4n3CCF)cc2)cn1` [Compound K, 5-[4-[3-(2-fluoranylethyl)imidazo[4,5-c]pyridin-2-yl]phenyl]-N,N-dimethyl-pyridin-2-amine], in assay [2], the equilibrium dissociation constant (Kd) is 3500 nM.
As for `COc1ccc2nc(-c3ccc(-c4ccc(N(C)C)nc4)nc3F)cn2c1` [Compound U, 6-Fluoro-5-(6-methoxyimidazo[1,2-a]pyridin-2-yl)-N,N-dimethyl-2,3′-bipyridin-6′-amine], the Kd in assay [2] was found to be 1510 nM.
Regarding `CN(C)c1ccc(-c2ccc(-c3nc4ccc(NCC(O)CF)cc4s3)c(F)n2)cn1` (stereo not shown) [Compound X, 1-[[2-[6-[6-(dimethylamino)pyridin-3-yl]-2-fluoranyl-pyridin-3-yl]-1,3-benzothiazol-6-yl]amino]-3-fluoranyl-propan-2-ol], the dissociation constant Kd in assay [2] came to 170 nM.
For `CNc1ncc(-c2ccc(-c3nc4ccc(N)cc4s3)c(F)n2)cn1` [Compound Y, 2-[2-Fluoranyl-6-[2-(methylamino)pyrimidin-5-yl]pyridin-3-yl]-1,3-benzothiazol-6-amine], the dissociation constant Kd in assay [2] is above 10000 nM.
